# Measured values from PMC10837133, “Molecular basis of Spns2-facilitated sphingosine-1-phosphate transport” (Cell Research, 2023).
# Tests used:
# [1] = target: T1, Spns2 (Spinster homolog 2) (Homo sapiens, UniProt Q8IVW8); test: cell-based FTY720-P transport assay, WT vs mutants
# T1 sequence (Q8IVW8 1-549): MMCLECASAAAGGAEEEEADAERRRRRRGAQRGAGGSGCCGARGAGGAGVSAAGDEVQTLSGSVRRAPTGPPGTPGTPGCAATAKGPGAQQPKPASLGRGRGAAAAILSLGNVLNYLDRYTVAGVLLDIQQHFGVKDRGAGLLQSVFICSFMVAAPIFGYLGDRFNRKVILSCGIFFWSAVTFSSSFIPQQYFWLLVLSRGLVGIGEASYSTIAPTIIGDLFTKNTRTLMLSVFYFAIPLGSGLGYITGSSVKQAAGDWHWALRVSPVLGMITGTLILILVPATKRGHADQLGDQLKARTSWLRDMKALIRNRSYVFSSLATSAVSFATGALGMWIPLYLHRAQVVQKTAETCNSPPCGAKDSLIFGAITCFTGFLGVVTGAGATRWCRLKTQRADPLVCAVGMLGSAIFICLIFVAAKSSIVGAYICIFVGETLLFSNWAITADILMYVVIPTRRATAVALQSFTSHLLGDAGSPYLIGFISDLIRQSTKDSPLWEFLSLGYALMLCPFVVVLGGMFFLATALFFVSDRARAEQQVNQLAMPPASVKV
# [2] = target: T2, Spns2 (Spinster homolog 2) (Homo sapiens, UniProt Q8IVW8); test: cryo-EM structure ([…] Å); affinity selection mass spectrometry; cell-based S1P efflux assay; format: binding
# T2 construct: Spns2fusion: PGS (Pyrococcus abyssi glycogen synthase) fused between F222 and T223 on intracellular loop 2
# T2 sequence (Q8IVW8 1-222 limits assumed): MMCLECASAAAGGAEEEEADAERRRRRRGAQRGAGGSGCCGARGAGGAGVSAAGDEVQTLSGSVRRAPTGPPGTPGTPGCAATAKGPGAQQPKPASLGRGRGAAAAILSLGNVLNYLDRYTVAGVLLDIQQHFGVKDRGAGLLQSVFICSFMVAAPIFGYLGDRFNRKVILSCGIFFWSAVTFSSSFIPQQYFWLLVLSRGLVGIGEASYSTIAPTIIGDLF
# T2 sequence (Q8IVW8 223-549 limits assumed): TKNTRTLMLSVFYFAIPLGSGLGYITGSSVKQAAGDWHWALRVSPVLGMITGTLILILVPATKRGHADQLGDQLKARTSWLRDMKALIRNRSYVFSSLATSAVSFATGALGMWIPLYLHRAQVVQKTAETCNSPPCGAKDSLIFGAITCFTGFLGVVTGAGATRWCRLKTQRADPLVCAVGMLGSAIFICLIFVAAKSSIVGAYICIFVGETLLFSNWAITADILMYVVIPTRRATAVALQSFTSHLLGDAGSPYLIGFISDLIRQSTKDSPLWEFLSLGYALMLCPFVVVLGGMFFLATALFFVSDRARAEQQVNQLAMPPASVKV
Compound,"cell-based FTY720-P transport assay, WT vs mutants [1]",cryo-EM structure (3.60 Å); affinity selection mass spectrometry; cell-based S1P [2]
CCCCCCCCc1ccc(CC[C@](N)(CO)COP(=O)(O)O)cc1 [FTY720-P],"substitutions also significantly decreased FTY720-P transport activity, which indicates a similar FTY720-P transport mechanism as S1P",–
"CCCCCCCCCCCCC/C=C/[C@@H](O)[C@@H](N)COP(=O)(O)O [S1P, sphingosine-1-phosphate]",–,The affinity selection mass spectrometry results confirmed that endogenous S1P bound to Spns2fusion
